{"source": "ChEMBL document CHEMBL1122604", "about": "“(E)-2-(3,4-dimethoxyphenyl)-3-fluoroallylamine: a selective, enzyme-activated inhibitor of type B monoamine oxidase” (J Med Chem, 1984)", "key": {"Rattus norvegicus": {"organism": "Rattus norvegicus", "experiment": "Compound was evaluated for apparent kinetic dissociation (Ki) using Kitz and Wilson method.", "format": "functional, organism-based"}, "[1]": {"molecular_target": "T1, Amine oxidase [flavin-containing] A (Rattus norvegicus, UniProt P21396)", "T1 sequence (P21396 whole entry)": "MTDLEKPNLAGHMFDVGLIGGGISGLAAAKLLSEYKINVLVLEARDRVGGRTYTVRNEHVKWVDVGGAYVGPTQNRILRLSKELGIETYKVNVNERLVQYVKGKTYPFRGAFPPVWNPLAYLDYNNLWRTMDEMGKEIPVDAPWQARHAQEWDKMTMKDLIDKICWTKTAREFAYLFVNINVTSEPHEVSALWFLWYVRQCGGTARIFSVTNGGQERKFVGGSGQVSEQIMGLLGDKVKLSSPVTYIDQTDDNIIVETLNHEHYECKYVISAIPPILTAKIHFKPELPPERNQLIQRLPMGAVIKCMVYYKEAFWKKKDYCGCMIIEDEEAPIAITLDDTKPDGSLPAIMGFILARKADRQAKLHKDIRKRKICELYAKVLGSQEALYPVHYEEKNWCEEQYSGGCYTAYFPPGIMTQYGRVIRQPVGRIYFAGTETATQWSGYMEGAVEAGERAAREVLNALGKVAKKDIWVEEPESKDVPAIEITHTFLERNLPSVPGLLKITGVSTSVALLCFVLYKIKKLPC", "experiment": "Inhibition of monoamine oxidase (MAO) type A by administering the compound perorally at a dose level of 0.5 mg/(kg day).", "format": "functional", "conditions": "po"}, "[2]": {"experiment": "The minimum half-life at apparent dissociation concentration of 40 uM at 10 degrees Centigrade.", "format": "ADME"}, "[3]": {"molecular_target": "T2, Amine oxidase [flavin-containing] B (Rattus norvegicus, UniProt P19643)", "T2 sequence (P19643 whole entry)": "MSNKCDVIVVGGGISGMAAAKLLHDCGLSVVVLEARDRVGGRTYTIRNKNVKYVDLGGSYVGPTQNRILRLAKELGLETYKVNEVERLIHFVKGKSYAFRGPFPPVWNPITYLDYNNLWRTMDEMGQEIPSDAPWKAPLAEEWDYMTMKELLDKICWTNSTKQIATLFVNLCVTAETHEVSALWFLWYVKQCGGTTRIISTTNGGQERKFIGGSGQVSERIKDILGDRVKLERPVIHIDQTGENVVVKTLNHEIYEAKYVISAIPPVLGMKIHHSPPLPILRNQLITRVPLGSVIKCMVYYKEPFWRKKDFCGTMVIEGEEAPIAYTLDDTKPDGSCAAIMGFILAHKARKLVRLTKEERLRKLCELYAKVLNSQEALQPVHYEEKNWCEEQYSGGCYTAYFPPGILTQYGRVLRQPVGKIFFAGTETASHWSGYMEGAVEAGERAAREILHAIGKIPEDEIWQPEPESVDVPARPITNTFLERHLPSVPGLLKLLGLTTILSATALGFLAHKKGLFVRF", "experiment": "Inhibition of monoamine oxidase (MAO) type B by administering the compound perorally at a dose level of 0.5 mg/(kg day).", "format": "functional", "conditions": "po"}, "[4]": {"experiment": "The minimum half-life at saturation concentration of 130 uM at 10 degrees Centigrade.", "format": "ADME", "conditions": "read-out: T50"}, "[5]": {"molecular_target": "T1, Amine oxidase [flavin-containing] A", "experiment": "Inhibition of monoamine oxidase (MAO) type A by administering the compound perorally at a dose level of 2.5 mg/(kg day).", "format": "functional", "conditions": "po"}}, "note": "pKi: −log10 of the molar value. Where “and” joins values, the source holds several entries; their conditions need not be identical. Equal entries are not always repeated."}
{"compound": "COc1ccc(/C(=C\\F)CN)cc1OC.Cl", "values": [{"measurement": "pKi", "setting": "Rattus norvegicus", "result": "4.40 and 3.89"}, {"measurement": "Inhibition", "setting": "[1]", "result": "< 15", "unit": "%"}, {"measurement": "T50", "setting": "[2]", "result": 1.7, "unit": "min"}, {"measurement": "Inhibition", "setting": "[3]", "result": "> 85", "unit": "%"}, {"measurement": "half-life at 130 µM", "setting": "[4]", "result": 14.5, "unit": "min"}, {"measurement": "Inhibition", "setting": "[5]", "result": 50, "unit": "%"}]}
